Measured values reported in patent US6495563B1, “Method and composition for prevention of scar formation in glaucoma filtration bleb and drainage fistula” (Synphora AB, priority 1999, dated 2002).
Marks after values point to notes of the source that are not given here.

How the values were obtained:
Human fibroblasts = test: Antiproliferative effect on cultured human fibroblasts (crystal violet absorbance as measure of cell number); format: cell-based; details: for Effect on cell number of the cultures (decrease in crystal violet absorbance): 10^−6 to 10^−3 Moles/l, 5-7 days; for EC50 value for reducing cell number / EC50: 5-7 days of culture, crystal violet absorbance at 595 nm; for EC50: read-out: EC50 value for reducing cell number
Experimental: The following prostaglandins, purchased from Cayman Chemicals, Ann Arbor, Mich., USA, and Biomol Feinchemikalien GmbH, Hamburg, Germany were used in the experiments: prostaglandin A1 (PGA1), prostaglandin A2 (PGA2), prostaglandin J2 (PGJ2) and 15-deoxy-Δ^12,14-prostaglandin J2 (15-Δ^12,14-PGJ2). The chemical structures of the test compounds are depicted in FIG. 1. All test compounds were stored at −20° C., and fresh solutions containing the appropriate concentrations of the test compounds were made every second day. The test compounds were initially dissolved in ethanol and then diluted in the culture medium.
Human fibroblasts were used at passage 22-24. The culture medium consisted of DMEM with 10% fetal calf serum and 50 μg/ml gentamycin. Around 10,000 cells were seeded into each well of 48 well microtiter plates. The total volume of culture medium was about 250 μl/well. The cells were incubated at 37° C. with 5% CO2 humidified air. The culture medium was changed every second day, and at the same time new, freshly prepared prostaglandin was added to the medium. The test compounds were investigated at several concentrations in the range of 10^−6 to 10^−3 Moles/l. […] The concentrations in the figures depicting the results are expressed as the negative logarithm The culture medium alone served as control. After 5-7 days of culture the experiment was terminated by fixation of the cells in 1% glutaraldehyde. The cells were then stained with 0.1% crystal violet, and the stain was eluted with 2.5% sodium lauryl sulphate. The absorbance of the colored solutions was determined spectrophotometrically. Each experiment was performed at least in duplicate.

[1] = tested on: New Zealand White adult rabbits; test: Intraocular pressure after modified trabeculectomy surgery in rabbits with topical eye drops; format: in vivo, rabbit
Experimental: Ten New Zealand White adult rabbits underwent modified unilateral trabeculectomy surgery and were treated with corticosteroids and mydriatics postoperatively for about one month according to a clinical protocol. Starting the same day as the surgery was performed, the operated eye in five animals was in addition treated twice daily with PGA2-IE eye drops (10 μg/dose) for 4 months, while in the other five animals the operated eye was treated with vehicle only for the same period of time. The intraocular pressure was measured throughout the treatment period at least every second week. […] From FIG. 4 it is apparent that the difference in intraocular pressure between the vehicle-treated operated and control eyes steadily diminished with time which was quite opposite to the difference in traocular pressure between the PGA2-IE-treated operated and control eyes in FIG. 5. Thus it appears that even during this short treatment period (4 months) a difference in the level of intraocular pressure reduction between the PGA2-IE treated and vehicle-treated operated eyes is manifested, and at the end of the treatment period the difference in intraocular pressure reduction was statistically significant (p<0.05) (Table 1).

[2] = tested on: New Zealand White adult rabbits; test: Postsurgical intraocular inflammation after extracapsular lens extraction in rabbits; format: in vivo, rabbit; details: 10 μg/dose twice daily; for Number of animals, operated eye Normal / Number of animals, operated eye Inflamed: 5 animals
Text: Ten New Zealand White adult rabbits underwent extracapsular lens extraction in one eye to investigate the effect of PGA2-E on postsurgical inflammation. Lens extraction was used as a model since this procedure is always followed by some inflammatory changes. The contralateral eye was used as an untreated control eye in each animal. The operated eyes were given routine postsurgical treatment with corticosteroids and mydriatics for about one month. From the day after the surgery and for a total of 4 months 5 of the animals were treated with PGA2-IE eye drops twice daily (10 μg/dose) in the operated eye while the contralateral control (non-operated) eye received no treatment. The other 5 animals were treated with the vehicle only twice daily for the same period of time. […] The signs of inflammation comprised miosis, iridial hyperemia, flare and fibrin accumulation in the anterior chamber, and additional anti-inflammatory medication had to be given to these animals.

For `CCCCC/C=C/C=C1/C(=O)C=C[C@@H]1C/C=C\CCCC(=O)O` [15-deoxy-Δ^12,14-PGJ2, 15-deoxy-Δ^12,14-prostaglandin J2], the “Effect on cell number of the cultures (decrease in crystal violet absorbance)” value (from here on “Effect … (decrease in crystal violet absorbance)”) (Human fibroblasts) was “effectively reduced the cell number”.
In the case of `CCCCC[C@H](O)/C=C/[C@H]1C=CC(=O)[C@@H]1CCCCCCC(=O)O` [PGA1, prostaglandin A1], the “Effect … (decrease in crystal violet absorbance)” value (Human fibroblasts) is reported as “effectively reduced the cell number”.
With `CCCCC[C@H](O)/C=C/[C@H]1C=CC(=O)[C@@H]1C/C=C\CCCC(=O)O` [PGA2, prostaglandin A2] the “EC50 value for reducing cell number” value (Human fibroblasts) was “around −5.5 log units”, the EC50 (Human fibroblasts) was roughly 3 µM and the “Effect … (decrease in crystal violet absorbance)” value (Human fibroblasts) was “effectively reduced the cell number”.
In the case of `CCCCC[C@H](O)/C=C/[C@H]1C=CC(=O)[C@@H]1C/C=C\CCCC(=O)OC(C)C` [PGA2-IE, PGA2-isopropyl ester], the “Maintenance of the intraocular pressure at a reduced level after surgery compared with vehicle” value ([1]; 4 months, 10 μg/dose twice daily) is reported as “clear tendency towards better maintenance of the intraocular pressure at a reduced level”, the “Adverse effects in the eye (local inflammation or increased intraocular pressure)” value ([1]; 4 months, 10 μg/dose twice daily topical) is reported as “no adversarial effects in the eye” and the “Intraocular pressure, operated eye” value ([1]; end of 4 month treatment, 10 μg/dose twice daily eye drops, n=5) is reported as 17.2 ± 2.9 mmHg. The “Intraocular pressure, difference between control eye and operated eye” value ([1]; end of 4 month treatment, 10 μg/dose twice daily eye drops, n=5, p<0.05 vs vehicle group) was 3.8 ± 1.0 mmHg, the “Number of animals, operated eye Normal” value ([2]; 2 months after surgery) was 3 and the “Number of animals, operated eye Inflamed” value ([2]; 2 months after surgery, one only slightly inflamed) was 2*. For the same molecule, the “Anti-inflammatory effect in the eye” value ([2]; 4 month treatment) was “remarkable anti-inflammatory effect”, the “Number of animals, operated eye Inflamed” value ([2]; 4 months after surgery) was 1 and the “Number of animals, operated eye Normal” value ([2]; 4 months after surgery) was 4.
In the case of `CCCCC[C@H](O)/C=C/[C@H]1C(=O)C=C[C@@H]1C/C=C\CCCC(=O)O` [PGJ2, prostaglandin J2], the “EC50 value for reducing cell number” value (Human fibroblasts) is reported as “about −4.75 log units”, the EC50 (Human fibroblasts) is reported as roughly 20 µM and the “Effect … (decrease in crystal violet absorbance)” value (Human fibroblasts) is reported as “effectively reduced the cell number”.
